# Patent US20170216360A1, “METHODS AND COMPOSITIONS FOR IMPROVING HOMING OF CELLS INCLUDING MESENCHYMAL STEM CELLS” (SANOFI, priority 2014, published 2017)
# Counter-ions that a name gives are not always drawn.
# Legend:
# [1] = tested on: TNF-α; experiment: TNF-α ELISA of ear homogenates after infusion of pretreated MSCs; assay type: in vivo, mouse
# Experimental: (§1) To determine the impact of small molecule pretreatment on MSC therapeutic potential, ear swelling was measured. As a baseline, we measured ear thickness of all mice to be used using a caliper (Mitutoyo Inc.) and found no difference. Each measurement was taken 3 times with the average value recorded, and care taken to ensure minimal compression. Inflammation was then induced by injection of 30 μg LPS in 30 μL 0.9% saline solution into the pinna of the left ear. 24 hours later, n=3 mice of each condition were infused with no MSCs, 10e6/20 g body weight MSCs pretreated for 24 hours with 0.1% DMSO, or 10e6/20 g body weight MSCs pretreated for 24 hours with 3.0 μM small molecule compound 1929. Upon 24 hours after cell infusion, ear thickness was measured using a caliper as before. To evaluate TNF-α secretion, inflammation and MSC treatment was performed as above with n=4-6 mice for each condition. Mice were sacrificed 24 hours after cell administration and both ears were harvested. Ears were then ground in ice-cold extraction buffer (RIPA with 0.5% Tween-20) using a homogenizer. Homogenates were transferred to 1.5 mL tubes, centrifuged at 13,000×g for 10 minutes at 4° C., and the supernatant was stored at −80° C. until analysis. The level of mouse TNF-α level in the samples was quantified using an anti-mouse TNF-α ELISA kit (Biolegend, San Diego, Calif.).
# [2] = tested on: CD11a surface expression on huMSCs; experiment: Medium throughput screen: CD11a surface expression on MSCs, PE-CY5 anti-CD11a antibody, laser-scanning fluorescence microplate cytometer; assay type: cell-based, human
# [3] = tested on: MSC secretome; experiment: Secretomic analysis of small molecule-primed MSCs (Bio-plex immunoassays); assay type: cell-based, human
# [4] = tested on: CD18 mRNA; experiment: CD18 mRNA analysis by qPCR in MSCs; assay type: cell-based, human; settings: 3 μM
# Experimental: (§2) The mRNA levels of CD11a and CD18 in response to Ro-31-8425 pretreatment of MSCs were analyzed by qPCR. Specifically, MSCs were treated with Ro-31-8425 (3 μM) or vehicle control (0.1% DMSO) for 2 h, 4 h, 8 h, 14 h or 24 h. Cells were then trypsinized, washed with ice-cold PBS and pelleted (500 g for 5 min at 4° C.) at during the treatment and immediately stored at −80° C. RNA extraction was then performed. Briefly, the frozen cell pellet was crushed with a tissue pestle (Fisher Scientific) in the presence of 1 mL TRI RNA isolation reagent (Sigma Aldrich). Upon complete pellet dissociation, 0.2 mL chloroform was added and suspension was vortexed for 15 s, followed by incubation at ambient temperature for 10 min. The mixture was centrifuged at 15,000 g for 15 min at […], the resulting supernatant aqueous phase was removed, thoroughly mixed with 0.5 mL isopropanol (Sigma Aldrich) and further centrifuged (at 15,000 g for 10 min) to obtain the total RNA precipitates. The RNA pellets were washed twice in 75% ethanol, and air dried for 10 min at room temperature before being reconstituted with 20 uL ultrapure H2O. The quality and quantity of the total RNAs were measured and verified using Nanodrop ND-2000 Spectrophotometer (NanoDrop Products). Subsequently, equal amount of total RNA (2 μg) was reverse transcribed into cDNA using a QuantiTect reverse transcription kit (Qiagen). […]
# [5] = tested on: LPS-induced inflamed mouse ear; experiment: Ear thickness in LPS-induced ear inflammation after infusion of pretreated MSCs; assay type: in vivo
# Experimental: as §1
# [6] = tested on: CD11a mRNA; experiment: CD11a mRNA analysis by qPCR in MSCs; assay type: cell-based, human; settings: 3 μM
# Experimental: as §2
structure (smiles),measurement,setting,value
"Cn1cc(C2=C(c3c4n(c5ccccc35)CCC(CN)C4)C(=O)NC2=O)c2ccccc21 (stereo not drawn) [Compound 1929, 3-(8-aminomethyl-6,7,8,9-tetrahydro-pyrido[1,2-a]indol-10-yl)-4-(1-methyl-1H-indol-3-yl)-pyrrole-2,5-dione hydrochloride]",Reduction of increased TNF-α levels in the inflamed ear,[1]; 24 h after pretreated MSCs,~50%
same,"TNF-alpha levels in the inflamed ear, fold reduction",[1]; 24 hours after pretreated MSCs,2.6±0.5 fold
same,Effect on the expression of other homing ligands,[2],no observed effect
same,"Number of analytes with statistically significant changes, out of 48 secreted factors",[3],3
same,Mean of [IFN-g],"[3]; 0.3 μM, 24 h, MSC donor 318006",11.0 pg/mL
same,Mean of [IL-1ra],"[3]; 0.3 μM, 24 h, MSC donor 318006",16.5 pg/mL
same,Mean of [IL-6],"[3]; 0.3 μM, 24 h, MSC donor 318006",451.3 pg/mL
same,Mean of [IL-8],"[3]; 0.3 μM, 24 h, MSC donor 318006",26.9 pg/mL
same,Mean of [IL-12p70],"[3]; 0.3 μM, 24 h, MSC donor 318006",13.3 pg/mL
same,Mean of [LIF],"[3]; 0.3 μM, 24 h, MSC donor 318006",14.2 pg/mL
same,Mean of [MCP-1],"[3]; 0.3 μM, 24 h, MSC donor 318006",26.4 pg/mL
same,Mean of [MIF],"[3]; 0.3 μM, 24 h, MSC donor 318006",54.9 pg/mL
same,Mean of [VEGF],"[3]; 0.3 μM, 24 h, MSC donor 318006",547.2 pg/mL
same,Mean of [IL-1ra],"[3]; 3 μM, 24 h, MSC donor 318006",22.6 pg/mL
same,Mean of [LIF],"[3]; 3 μM, 24 h, MSC donor 318006",10.8 pg/mL
same,Mean of [MIF],"[3]; 3 μM, 24 h, MSC donor 318006",69.4 pg/mL
same,IL-8 level secreted by MSC,[3]; 3 micromolar for 24 hours,downregulation
same,MCP-1 level secreted by MSC,[3]; 3 micromolar for 24 hours,downregulation
same,SDF-1alpha level secreted by MSC,[3]; 3 micromolar for 24 hours,upregulation
same,Fold change of analyte IL-6 upon pretreatment (vs. vehicle control),[3]; MSC secretome,0.34 +/− 0.09
same,Fold change of analyte MCP-1 upon pretreatment (vs. vehicle control),[3]; MSC secretome,0.54 +/− 0.09
same,mRNA levels of CD18 in MSCs,[4],did not upregulate
same,Effect on ear swelling relative to control MSCs,[5]; 24 hours post administration,over 3 ×
same,Reduction in ear thickness,"[5]; 24 hours post administration of pretreated MSCs, vs no MSC",20.0±5.3 μm
same,Effect in reducing ear swelling relative to vehicle control MSCs,[5]; 24 h post-administration,greater than 3 fold
same,CD11a mRNA levels in MSCs,[6],significantly increased
same,Time of peak CD11a mRNA levels post incubation,[6],14 h
